# Test results published in patent publication US20260209180A1, “PROTEASE INHIBITORS FOR TREATING OR PREVENTING CORONAVIRUS INFECTION” (Merck Sharp & Dohme LLC, priority 2023, published 2026).
# Molecular target: SARS2 coronavirus 3CL protease (Severe acute respiratory syndrome coronavirus 2, UniProt P0DTD1)
# Assay: SARS2 Coronavirus 3CL Protease Assay (FRET)
# Assay type: biochemical
# Conditions: 5 nM protease pre-incubated with compound 30 minutes; 15 uM peptide substrate; 4 h room temperature; read-out: FRET Potency (nM); IC50 values in the SARS2 3CLPro FRET assay
# Procedure: The enzymatic activity of SARS2 coronavirus 3CL protease was determined in a FRET (fluorescence resonance energy transfer)-based assay measuring the cleavage of a peptide substrate by recombinantly expressed and purified enzyme. Cleavage of the peptide SEQ ID NO: 1 (CPC Scientific) by SARS2 3CL protease was measured in reaction buffer (50 mM Hepes pH 7.5, 0.01% Triton X-100, 0.01% BSA, 2 mM DTT). […] Room temperature reactions (4 h) were quenched by addition of a high dose of inhibitor and read on an appropriate plate reader (excitation wavelength=495 nm, emission wavelength=520 nm). Data were analyzed by a standard 4 parameter fit to determine IC50 values.
row,SMILES,IC50 [nM]
1,"CNC(=O)C(=O)[C@H](CCC(C)(F)F)NC(=O)c1cc(Cl)cnc1NC(=O)c1cccc(F)c1 [Example 24, 5-chloro-N-[(1S)-4,4-difluoro-1-[2-(methylamino)-2-oxo-acetyl]pentyl]-2-[(3-fluorobenzoyl)amino]pyridine-3-carboxamide]",14
2,"CNC(=O)C(=O)[C@H](CCC(C)(F)F)NC(=O)c1cc(Cl)ccc1NC(=O)C12CC(C(F)(F)F)(C1)C2 [Example 22, N-[4-chloro-2-[[(1S)-4,4-difluoro-1-[2-(methylamino)-2-oxo-acetyl]pentyl]carbamoyl]phenyl]-3-(trifluoromethyl)bicyclo[1.1.1] pentane-1-carboxamide]",13
